# Measurements published in US12564572B2, “Topical ocular delivery of cromakalim” (QLARIS BIO, INC., priority 2022, dated 2026).
# How the values were obtained:
# [1] = tested on: Dutch Belted rabbits; assay: 28 day repeated dose toxicology and toxicokinetic study by ocular topical administration in Dutch Belted rabbits (Example 12); settings: rabbit, in vivo, topical or ocular; for Tmax: male
# Method: Plasma concentrations of levcromakalim were evaluated in DB rabbits after twice a day (BID) oculus uterque (OU, both eyes) topical ophthalmic (T.O.) administration of formulation 3d for 28 days at dose levels of 0, 0.012, 0.03, and 0.06 mg/eye/dose.
# Plasma concentrations of levcromakalim were evaluated in DB rabbits after BID OU T.O. administration of three concentrations of formulation 3d at dose levels of 0, 0.012, 0.03, and 0.06 mg/eye/dose (0, 0.024, 0.06, and 0.12 mg/eye/day respectively or 0.030% [1.0 mM], 0.075% [2.5 mM], or 0.15% [5 mM] respectively) for 28 days. Plasma was collected from 3 animals/dose group at pre-dose, 0.5, 1, 2, 3, 4, 6, and 12 hours post-first dose on Days 1 and 28.
# [2] = tested on: patients with primary open-angle glaucoma; settings: cited from earlier work
# [3] = tested on: rabbit eyes; settings: 0.5% cromakalim in 0.02 M phosphate buffer; cited from earlier work
# [4] = tested on: KATP channels; settings: in the presence of ATP; cited from earlier work
structure (smiles),measurement,setting,value
CC1(C)Oc2ccc(C#N)cc2[C@@H](N2CCCC2=O)[C@@H]1O [levcromakalim],AUCtlast,"[1]; female, 0.03 mg",3.99 ng·h/mL
same,t1/2,"[1]; female, 0.06 mg",1.77
same,Tmax,[1]; 0.012 mg,70.2 min
same,Tmax,[1]; 0.06 mg,42 min
CC1(C)Oc2ccc(C#N)cc2[C@@H](N2CCCC2=O)[C@@H]1OP(=O)(O)O [QLS-101],Hyperemia (eye redness),[2]; in vivo,no evidence of hyperemia
same,Efficacy,[2]; patients with primary open-angle glaucoma,positive efficacy signal
CC1(C)Oc2ccc(C#N)cc2C(N2CCCC2=O)C1O (centres unmarked) [cromakalim],Effect on IOP after topical administration,[3],tended to increase IOP
same,Increase of open-state probability (Popen) of single KATP channels,[4],more than 9 fold
